From patent US20260207637A1, “MODULATOR FOR PROMOTING BINDING OF BUTYROPHILIN 3A1/2A1” (priority 2023, published 2026)
Like-named read-outs stand apart in the source and are kept apart here.

Experiments:
MIApaca/FG2 cells = assay: EC50 assay of small molecule activated γδ T cells to kill MIApaca/FG2 tumor cells (10-fold dilution protocol); format: cell-based; settings: 10^-12-10^-5 M, read-out: MIApaca killing (EC50)
Experimental: γδT cells and MIApaca/FG2 tumor cell lines were expanded and cultured in vitro. The MIApaca/FG2 cells were digested, and the cells were counted and resuspended in DMEM complete medium, the density of the cell suspension was adjusted and added into a 96-well plate at 5×10^3 cells/50 μL/well for overnight incubation. On the next day, the test compound and the control compound were diluted at a 10-fold ratio with γδT complete medium. 50 μL of diluted compound was transferred to the corresponding wells which had been plated with tumor cells, and the actual detection concentration was in the range of 10^−12-10^−5 M. γδT cells were resuspended in γδT complete medium, and the density of the cell suspension was adjusted according to the effector-target ratio of E:T=2:1, and then the cells were added to the corresponding wells at 1×10^4 cells/50 μL/well. After co-culture at 37° C., 5% CO2 for 20 hours, the cells were centrifuged. The supernatant was removed, and 50 μL of cell lysate containing luciferin substrate was added to each well. After standing for 18 minutes in the dark, the signal of chemiluminescence was detected. The EC50 value was calculated by four-parameter fitting, with the corresponding signal value of the well with only tumor cells as the minimum killing value, and the corresponding signal value of the well without tumor cells as the maximum killing value. The killing data of MIApaca/FG2 cells is as follows: […]

[1] = Stability experiment of compounds in human whole blood; format: in vitro ADME; settings: whole blood (sodium heparin), 37° C., 0-4 h, read-out: T1/2 in human whole blood (converted)
Experimental: • (1) An appropriate amount of blank whole blood was added into an EP tube containing sodium heparin, then added the working solution of the test substance to a final concentration of 1 μM, and mixed by vortex; • (2) The sample was placed in a water bath at 37° C. with two parallel experiments; for one experiment, the time points were 0 h, 0.5 h, 1 h, 2 h, and 4 h; another experiment was performed to obtain the absolute zero point, which was compared with the 0 h point. • (3) An appropriate amount of sample was taken out from the incubation system, to which 300 μL of internal standard precipitant was added for protein precipitation; (4) all samples were centrifuged at 6° C. for 10 min (15700×g). • (5) 150 μL of the supernatant was taken out, to which 150 μL of water was added, which was mixed by vortex, and analyzed by LC-MS/MS. The stability data of compounds in human whole blood is as follows: […]

[2] = Binding rate test of compounds and human plasma protein (equilibrium dialysis); format: in vitro ADME; settings: human plasma, equilibrium dialysis 6 hours, 37° C.
Experimental: (1) The dry dialysis membrane was soaked with ultrapure water for 20 min or more than 20 min, then soaked with 20% ethanol for 30 min to 1 h, and the membrane was rinsed with ultrapure water 2-3 times. Finally, the membrane was soaked with ultrapure water for 20 minutes for later use.
(2) The frozen plasma was thawed in a water bath at 37° C.
(3) The test compound was diluted into plasma preheated to 37° C. at a final concentration of 1 μM, and the final concentration of the control compound warfarin in plasma was 2 μM.
(4) The pre-treated dialysis membrane was assembled into the dialysis plate according to the specification of the product, and 120 μL of the receiving solution (100 mM phosphate buffer solution added 0.002% Tween 80) was added to one side of the permeable membrane in each dialysis well.
(5) 20 μL of each of the final solutions of the test compound and the control compound were added into a 96-well sample plate in duplicate, and the TO sample was obtained, which was stored in a refrigerator at −20° C. Another 20 μL of the above final solution was added to the other side of the membrane in the dialysis device in duplicate, and incubated at 37° C. by shaking at constant temperature for 6 hours.
(6) After 6 hours of incubation, 20 L of each of the dialyzed receiving solution and the administered plasma were weighed to obtain sample B and sample A in duplicate. The corresponding volume of corresponding blank plasma or receiving solution was added to sample B and sample A, respectively, so that the volume ratio of plasma to buffer in each sample well was 1:1. 300 μL of acetonitrile solution containing internal standard was added to all sample wells, and centrifuged after mixed uniformly.
(7) 200 μL of ultrapure water (150 μL for the control group) was added into the corresponding sample wells of the 96-well sample plate, and 300 μL of the supernatant (150 μL for the control group) was added into the sample well; the samples were analyzed after mixed uniformly. The free percentage and recovery rate of the compound in plasma were calculated using the following formula: Plasma protein binding rate (%)=1−free percentage, wherein free percentage (%)=CB/CA
wherein CB is the concentration of the compound in the receiving solution after equilibrium dialysis, CA is the concentration of the compound in the drug-dosed plasma after equilibrium dialysis, and CT0 is the initial concentration of the compound in plasma.

[3] = Pharmacokinetic test in cynomolgus monkeys; format: in vivo; settings: IV 2 mg/kg
Experimental: The control compound 2 and compound 19 were formulated into 1 mg/mL solution in 10% DMSO/90% PBS. Cynomolgus monkeys were obtained from Suzhou Leo Bio Technology Co., Ltd. The control compound 2 and compound 19 were administered intravenously at 2 mg/kg, respectively. The blood collected before administration was recorded as zero point. Then 1 mL of blood was collected at eight time points: 0.083, 0.15, 0.5, 1.0 2.0, 4.0, 8.0, and 24.0, respectively. 1 mL of the collected whole blood was placed in a labeled EDTA-2K anticoagulant tube. After gently inverting up and down to fully mix the anticoagulant (EDTA-2K) with the blood, it was immediately placed in wet ice and centrifuged within 30 minutes to separate the plasma. The centrifugation conditions were set to 4° C., 2200 g, and 6 min. The plasma separated after centrifugation was placed in a labeled EP tube, and the content of compound 19 and control compound 2 in the plasma samples at different time points were detected and analyzed. There were 3 male cynomolgus monkeys in each group.

[4] = Stability experiment of compounds in human liver microsomes; format: in vitro ADME; settings: NADPH, 37° C., read-out: T1/2 in human liver microsomes
Experimental: Compounds were prepared as a 10 mM stock solution with DMSO and then diluted with 80% acetonitrile-water to a 100 μM working solution for later use. Human liver microsomes were obtained from BIOIVT.
(1) The liver microsomes taken out from the refrigerator were placed in a 37° C. water bath thermostatic oscillator, pre-incubated for 5 min, and thawed for later use.
(2) A certain amount of NADPH was weighed and added to an appropriate amount of magnesium chloride solution to dissolve into a 2 mM solution for later use.
(3) A mixed solution of the warm incubation system (containing no β-NADPH) was prepared according to the proportions in the “composition of the experimental warm incubation system” above and dispensed at 165 μL/tubes (45 μL/tube for the negative control group and 120 μL/tube for the positive control group).
(4) For the sample at 0 min: 200 μL of internal standard working precipitant was added and then 30 μL of NADPH solution was added.
(5) For other samples: 135 μL NADPH solution was added to initiate the reaction (45 μL magnesium chloride solution was added for the negative control group), and incubated in a 37° C. water bath for 5, 15, 30, and 60 min (incubated in a 37° C. water bath for 60 min for the negative control group), then 60 μL was sampled and added to 200 µL of precipitant containing internal standard.
(6) For the positive control group: 90 L NADPH solution was added to initiate the reaction, and incubated in a 37° C. water bath for 5, 15 min, then 60 μL was sampled and added to 200 μL of precipitant containing internal standard.
(7) For neat sample: 297 μL of water was pipetted into a tube, 1000 μL of internal standard working solution was added, and 3 μL of test compound working solution was added.
(8) All samples were vortexed and centrifuged.
(9) 150 μL of the supernatant was sampled and added to 150 μL of water, mixed uniformly by vortex, and analyzed by LC-MS/MS. The half-life stability data of human liver microsomes is as follows: […]

[5] = Homo sapiens, MIA PaCa-2, γδT cells + MIApaca/FG2, E:T=2:1, co-culture 20 hours

`C[C@H](NP(=O)(OC/C=C(/CO)C(F)(F)F)Oc1ccccc1)C(=O)OCC1CC1` (stereo partly drawn) [Compound 9, Cyclopropylmethyl ((phenoxy)(((Z)-4,4,4-trifluoro-3-(hydroxymethyl)but-2-en-1-yl)oxy)phosphoryl)-L-alaninate] showed an EC50 (MIApaca/FG2 cells; [5]) of 9.9 nM.

`CCC(CC)COC(=O)[C@H](C)NP(=O)(OC/C=C(/CO)C(F)(F)F)Oc1ccccc1` (stereo partly drawn) [Compound 10, 2-Ethylbutyl ((phenoxy)(((Z)-4,4,4-trifluoro-3-(hydroxymethyl)but-2-en-1-yl)oxy)phosphoryl)-L-alaninate] showed an EC50 (MIApaca/FG2 cells; [5]) of 12.8 nM.

With `C[C@H](NP(=O)(OC/C=C(/CO)C(F)(F)F)Oc1ccccc1)C(=O)OC1CCCC1` (stereo partly drawn) [Compound 11, Cyclopentyl ((phenoxy)(((Z)-4,4,4-trifluoro-3-(hydroxymethyl)but-2-en-1-yl)oxy)phosphoryl)-L-alaninate] the EC50 (MIApaca/FG2 cells; [5]) was 35.4 nM.

In the case of `C[C@H](NP(=O)(OC/C=C(/CO)C(F)(F)F)Oc1ccccc1)C(=O)O[C@H]1CCOC1` (stereo partly drawn) [Compound 12, (S)-tetrahydrofuran-3-yl ((phenoxy)(((Z)-4,4,4-trifluoro-3-(hydroxymethyl)but-2-en-1-yl)oxy)phosphoryl)-L-alaninate], the EC50 (MIApaca/FG2 cells; [5]) is reported as 5.1 nM.

For `C[C@H](NP(=O)(OC/C=C(/CO)C(F)(F)F)Oc1ccccc1)C(=O)O[C@@H]1CCOC1` (some centres unmarked) [Compound 13], the EC50 (MIApaca/FG2 cells; [5]) was 6.6 nM.

`CC(C)OC(=O)[C@H](C)NP(=O)(OC/C=C(/CO)C(F)(F)F)Oc1cccc2ccccc12` (stereo partly drawn) [Compound 14, isopropyl ((naphthyloxy)(((Z)-4,4,4-trifluoro-3-(hydroxymethyl)but-2-en-1-yl)oxy)phosphoryl)-L-alaninate] showed an EC50 (MIApaca/FG2 cells; [5]) of 67 nM.

For `C/C(=C\CCP(=O)(N[C@@H](C)C(=O)OCc1ccccc1)Oc1ccccc1)CO` (some centres unmarked) [Control compound 2, reference compound], the half-life at 1 μM [1] was 2 h, the fraction unbound at 6 h, 1 μM [2] was 0.027 and the AUC0-t/AUC0-inf ([3]; average) was 0.974. For the same compound, the concentration at 5 min ([3]; male, cynomolgus monkey, plasma, 5 min, read-out: Plasma concentration of the unchanged drug) was 299 ng/mL, the concentration at 9 min ([3]; male, cynomolgus monkey, plasma, 9 min, read-out: Plasma concentration of the unchanged drug) was 49 ng/mL and the concentration at 30 min ([3]; male, cynomolgus monkey, plasma, 30 min, read-out: Plasma concentration of the unchanged drug) was 1 ng/mL. It also gave a concentration at 1 h ([3]; male, cynomolgus monkey, plasma, 1 h, read-out: Plasma concentration of the unchanged drug) of 3 ng/mL, an AUC(0-t) ([3]; male, cynomolgus monkey, plasma, average, read-out: AUC0-t (AUClast)) of 194 ng·h/mL and a clearance ([3]; male, cynomolgus monkey, plasma, average, read-out: Cl (Cl_obs)) of 418 mL/min/kg. The half-life [4] was 1.4 min.

Work on `C/C(=C\COP(=O)(O)OP(=O)(O)O)CO` [HMBPP control, reference compound] yielded an EC50 (MIApaca/FG2 cells; γδT cells + MIApaca/FG2, E:T=2:1, co-culture 20 hours) of 2.1 nM.
